Measured values as given in US20040185510A1, “Use of labelled CCK-B receptor ligands for the detection and localization of malignant human tumours” (priority 1996, published 2004).
Non-standard residues stand in square brackets, D forms with d. No end group written: not given here. Nle = CCCC[C@H](N)C(=O)O

Columns and labels:
[1] = target: T1, CCK-B receptors in medullary thyroid carcinoma (MTC) tissue sections (Homo sapiens, UniProt P32239); assay: Receptor autoradiography: displacement of [125I]-desulfated-CCK-10 (compound 13 or 14) binding to MTC tissue sections; settings: for affinity of the mono 125I-iodinated radioligand: the two mono-iodinated compounds compared with each other
T1 construct: Receptor autoradiography is performed on 10- and 20-μm thick cryostat sections of the various tumour samples; from tissue; host or cells: human medullary thyroid carcinoma (MTC) tissue sections
T1 sequence (P32239 1-447): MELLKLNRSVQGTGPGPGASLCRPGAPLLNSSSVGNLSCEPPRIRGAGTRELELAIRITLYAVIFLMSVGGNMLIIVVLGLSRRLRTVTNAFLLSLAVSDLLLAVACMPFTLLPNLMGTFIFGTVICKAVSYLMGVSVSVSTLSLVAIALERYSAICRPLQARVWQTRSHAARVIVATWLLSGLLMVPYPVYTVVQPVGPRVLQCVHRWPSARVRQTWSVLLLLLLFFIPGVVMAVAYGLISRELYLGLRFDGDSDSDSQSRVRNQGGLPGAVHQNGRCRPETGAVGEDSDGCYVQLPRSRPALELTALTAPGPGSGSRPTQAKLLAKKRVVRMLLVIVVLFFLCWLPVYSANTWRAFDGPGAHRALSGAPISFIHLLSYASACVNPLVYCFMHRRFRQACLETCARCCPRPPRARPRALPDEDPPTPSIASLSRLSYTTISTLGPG
Procedure: The tissues are cut on a cryostat, mounted on microscopes slides, and then stored at −20° C. for at least 3 days to improve adhesion of the tissue to the slide. The slide-mounted tissue sections are allowed to reach room temperature and are preincubated in 50 mmol/l Tris-HCl, 130 mmol/l NaCl, 4.7 mmol/l KCl, 5 mmol/l MgCl2, 1 mmol/l ethylene glycol-bi(β-aminoethylether)-N,N,N′,N′-tetraacetic acid, and 0.5% bovine serum albumin, pH 7.4 (preincubation solution), for 30 min. at 25° C. The slides are then incubated in a solution containing the same medium as the preincubation solution except the bovine serum albumin is omitted, and the following compounds are added: 20000 dpm/100 μl of ^125I-CCK, 0.025% bacitracin, 1 mmol/l dithiothreitol, 2 μg/ml chymostatin, and 4 μg/ml leupeptin, pH=6.5. The slides are incubated at room temperature with the radioligand for 150 min., as described by Mantyh et al. (Gasteroenterology 1994, 107, 1019-30). To estimate non-specific binding, paired serial sections are incubated as described above, except that CCK-8 (sulfated) is added to the incubation medium. After the incubation, the slides are rinsed with four washes of 30 sec each in ice-cold preincubation solution, pH 7.4, dipped in ice-cold water, and then quickly dried in a refrigerator under a stream of cold air. The sections are subsequently exposed to a 3H-Ultrofilm for 1 week, to detect the precise location of the radioactivity.
Each point represents the optical density of binding measured in the tumour area. Non-specific binding is subtracted from all values.

[2] = target: T1, CCK-B receptors in medullary thyroid carcinoma (MTC) tissue sections; assay: Receptor autoradiography: displacement of [125I]-CCK-10 analog (compound 15) binding to MTC tissue sections; settings: increasing concentrations of unlabelled peptide, optical density in tumour area
Procedure: Receptor autoradiography is performed on 10- and 20-μm thick cryostat sections of the various tumour samples, as described by Reubi et al. (Cancer Res. 1990, 50, 5969-5977).
The tissues are cut on a cryostat, mounted on microscopes slides, and then stored at −20° C. for at least 3 days to improve adhesion of the tissue to the slide. The slide-mounted tissue sections are allowed to reach room temperature and are preincubated in 50 mmol/l Tris-HCl, 130 mmol/l NaCl, 4.7 mmol/l KCl, 5 mmol/l MgCl2, 1 mmol/l ethylene glycol-bi(β-aminoethylether)-N,N,N′,N′-tetraacetic acid, and 0.5% bovine serum albumin, pH 7.4 (preincubation solution), for 30 min. at 25° C. […] The sections are subsequently exposed to a 3H-Ultrofilm for 1 week, to detect the precise location of the radioactivity. […]
Tissue sections are incubated with 20,000 cpm/100 μl [^125I]-CCK-10 and increasing concentrations of unlabelled CCK-8 (unsulfated)(▴), CCK-8 (sulfated) (•) or somastotatin (∘). Each point represents the optical density of binding measured in the tumour area. […]
The displacement curves of DTPA substituted CCK-analogs, prepared as described in Example 2, are measured in order to determine the effect of the DTPA group and of substitution of some amino acids by other amino acids. […]
Each point represents the optical density of binding measured in the tumour area. […]

Substance | affinity of the mono 125I-iodinated radioligand [1] | displacement of [125I]-CCK-10 analog (compound 15) binding [2] | other results
D-Tyr-Gly-Asp-[^125I-Tyr]-Nle-Gly-Trp-Nle-Asp-Phe-NH2 [compound 14] | same affinity |  | 
[^125I-D-Tyr]-Gly-Asp-Tyr-Nle-Gly-Trp-Nle-Asp-Phe-NH2 [compound 13] | same affinity |  | 
[dY]GDY[Nle]GW[Nle]DF-NH2 [compound 12] |  |  | displacement of [125I]-desulfated-CCK-10 (compound 13 or 14) binding ([1]; increasing concentrations of unlabelled peptide): complete displacement
^115In-DTPA-Asp-Tyr-Nle-Gly-Trp-Nle-Asp-Phe-NH2 [compound 25] |  | complete displacement | 
^115In-DTPA-DAsp-Tyr-Nle-Gly-Trp-Nle-Asp-Phe-NH2 [compound 26] |  | complete displacement | 
